This is an account of results in US11098057B2, “9,10,11,12-tetrahydro-8H-[1,4]diazepino[5′,6′:4,5]thieno[3,2-F]quinolin-8-one compounds and uses thereof” (Celgene CAR LLC, priority 2017, dated 2021).

The structures appear in SMILES notation.

For the assay, the system named is phosphorylation of Hsp27 (Ser78) in Thp-1 human acute monocytic leukemia cells. In words: MK2 cellular assay, detection of total and phospho-Hsp27 (Serine 78) by MSD ELISA (Thp1). The class given is cell-based. Conditions: Thp-1 cells, 1 hour compound, then 50 ng/mL LPS for 45 minutes, read-out: pHSP27 signaling EC50. Here is the method:
MK2 Cellular Assay—Detection of Total and Phospho-Hsp27 (Serine 78) by MSD ELISA (Thp1)
Compounds of the invention can be assayed in Thp-1 human acute monocytic leukemia cells to measure inhibition of MK2 activity according to procedures detailed in the '463 application.
Specifically, Thp-1 cells were grown in culture medium containing RPMI/10% FBS (fetal bovine serum)/0.05 mM 2-mercaptoethanol. 72 hours prior to the assay, 8×10^4 cells per well were plated in a 96 well flat bottom plate along with 10 ng/mL phorbol 12-myristate 13-acetate (PMA). Cells were cultured in an incubator at 37° C. until needed for the assay. Cell plate media was replaced with culture media just prior to assay while compound dilutions were being made.
Stock solutions of test compound, 1 mM in DMSO, were prepared. […]
The MULTI-SPOT Phospho(Ser78)/Total HSP27 ELISA Assay kit was purchased from Meso Scale […] (MSD; catalog #K15128D). […] 150 μl/well 1×MSD read buffer was added (4× read buffer supplied with kit) and the plate was analyzed on the MSD SECTOR®Imager for analysis. The SECTOR®Imager measures intensity of emitted light to provide a quantitative measure of phosphorylated HSP27 (Ser78) and total HSP27 present in the sample. The relative percent phosphoprotein in a sample is calculated by dividing the Phospho-HSP27 signal intensity over the total HSP27 signal intensity measured in each well.
In general terms: An ELISA detects its analyte on a solid surface through an enzyme-linked reagent.

Usually EC50 stands for the concentration that produces a half-maximal response. Consider `CCOCc1cnc(Cl)nc1Oc1ccc2c(ccc3sc4c(c32)NC[C@H](C)NC4=O)n1` [Compound I-82], for which the EC50 is 101 to 500 nM.
